These results are taken from patent publication US11459338B2, “Heterocyclic compounds as PRMT5 inhibitors” (JUBILANT EPISCRIBE LLC, priority 2018, dated 2022).

A word on the IC50: it is the concentration at which inhibition is half-maximal. A high value points to lower potency. What is called GI50 is the concentration giving 50% growth inhibition.

One assay addresses T1, PRMT5/MEP50 (Homo sapiens, UniProt O14744).
T1 construct: Full-length human PRMT5 (NP_006100)
Nature of the assay: PRMT5/MEP50 enzyme assay on peptide substrates (3H-SAM Flashplate). It counts as biochemical. Conditions: PRMT5/MEP50 10 nM, H4 1-15aa peptide 100 nM, 3H-SAM 1 μM. An excerpt: General materials like S-adenocylmethionine (SAM), S-adenosylhomocysteine (SAH), Tris-HCl, DTT, […] (BSA) and Tween-20 were purchased from Sigma-Aldrich. 3H-SAM and 384-well streptavidin Flashplates were purchased from Perkin Elmer. Substrates that were used were Peptide representative of human Histone 4 residues 1-15 which was purchased from Rockland antibodies and assays.
PRMT5/MEP50 Enzyme assay on Peptide Substrates.
The assays were all performed in a buffer consisting of 50 mMTris-HCl, pH 8, 1 mM DTT, 0.01% BSA, 0.01% Tween-20, prepared on the day of use. Test compounds were diluted 3-fold in assay buffer (final DMSO concentration of 1%) and added into a 384-well OptiPlate (PerkinElmer, #6007290). A cocktail (10 μL) of PRMT5/MEP50 enzyme and the peptide was added to the wells. The compounds were allowed to incubate with PRMT5/MEP50 for 30 min at room temperature, then 5 μL of ^3H-SAM was added to initiate the reaction. The final concentrations of the components were as follows: PRMT5/MEP50-10 nM, H4, 1-15aa peptide-100 nM, ^3H-SAM-1 μM. The assays were stopped by the addition of 1 mM SAH. 25 μL of the reaction from the 384-well OptiPlate was then transferred to a 384-well Flashplate and the biotinylated peptides were allowed to bind to the streptavidin surface for at least 1 h, before being washed twice with 50 mMTris-HCl, pH 8, 0.1% Tween-20. The plates were then read in a PerkinElmer Topcount plate reader to measure the quantity of ^3H-labeled peptide bound to the Flashplate surface measured as disintegrations per minute (dpm), also referred to as counts per minute (cpm).
The IC50 values were calculated using a 4-parameter variable slope fit algorithm (cpm—counts per minute, cmpd—signal in assay well, and cpmmax and cpmmin mare the respective minimum and maximum signal controls).

Another assay concerns Z-138 cells. Put plainly: Z-138 long term proliferation assay (Cell Titer Glo). It counts as cell-based. As to conditions: Homo sapiens, 192 h; Z-138 cells, cell viability, day 8; read-out: PRMT5 Z138 GI50 Day 8 μM. Here is the method:
A compound source plate was prepared by performing ten-point 3-fold dilution in DMSO, such that the final top concentration of the compound was 10 μM, and DMSO was 0.3%. The total volume of compounds added was 20 μL. The cells were incubated for 96 h at 37° C., 5% CO2. […] The cells were re-treated with the compounds and incubated for an additional four days. Cell viability was measured on both day 4 and day 8, by adding 25 μL of Cell Titer Glo reagent to an equal volume of cell suspension. Luminescence was read on a PerkinElmer Victor3 multiplate reader. The concentration of compound inhibiting cell viability by 50% was determined using a 4-parameter, variable slope fit of the normalized dose response curves.

T1 sequence (O14744 whole entry): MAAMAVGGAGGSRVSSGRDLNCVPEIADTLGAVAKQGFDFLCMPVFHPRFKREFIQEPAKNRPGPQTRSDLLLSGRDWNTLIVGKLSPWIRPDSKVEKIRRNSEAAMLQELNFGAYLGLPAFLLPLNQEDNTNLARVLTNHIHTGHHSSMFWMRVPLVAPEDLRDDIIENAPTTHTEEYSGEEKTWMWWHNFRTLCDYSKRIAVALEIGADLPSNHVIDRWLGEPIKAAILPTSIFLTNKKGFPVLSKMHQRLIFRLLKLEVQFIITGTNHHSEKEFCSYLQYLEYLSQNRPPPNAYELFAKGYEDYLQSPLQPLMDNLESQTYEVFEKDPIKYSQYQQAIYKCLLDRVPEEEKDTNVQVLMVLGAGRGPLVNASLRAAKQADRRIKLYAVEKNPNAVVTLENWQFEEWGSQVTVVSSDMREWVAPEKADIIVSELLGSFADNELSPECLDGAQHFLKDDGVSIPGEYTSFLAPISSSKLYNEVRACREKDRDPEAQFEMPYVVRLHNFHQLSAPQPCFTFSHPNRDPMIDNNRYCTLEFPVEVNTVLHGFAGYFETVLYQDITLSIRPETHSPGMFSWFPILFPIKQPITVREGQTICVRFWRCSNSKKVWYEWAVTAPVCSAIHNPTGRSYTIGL
T1 sequence (Q9BQA1 whole entry partner): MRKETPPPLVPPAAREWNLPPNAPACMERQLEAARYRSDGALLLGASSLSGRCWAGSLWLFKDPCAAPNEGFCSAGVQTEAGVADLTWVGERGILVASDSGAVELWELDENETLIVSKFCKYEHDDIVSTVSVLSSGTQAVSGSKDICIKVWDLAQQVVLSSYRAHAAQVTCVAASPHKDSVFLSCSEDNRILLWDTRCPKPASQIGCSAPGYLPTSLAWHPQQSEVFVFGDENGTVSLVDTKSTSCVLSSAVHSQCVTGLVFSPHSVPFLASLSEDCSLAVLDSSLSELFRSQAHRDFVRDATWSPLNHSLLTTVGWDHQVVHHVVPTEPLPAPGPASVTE

Consider `CC(=O)N1CCC(c2cn3cc(C(=O)NC[C@H](O)CN4CCc5ccccc5C4)nc3cn2)CC1` [Example 52, (S)-6-(1-acetylpiperidin-4-yl)-N-(3-(3,4-dihydroisoquinolin-2(1H)-yl)-2-hydroxypropyl)imidazo[1,2-a]pyrazine-2-carboxamide], for which the 50% inhibitory concentration (IC50) at PRMT5/MEP50 was in the range of 0.01 to 1 µM. The GI50 in the assay with Z-138 cells lay in the range of 0.01 to 1 µM.
On to `O=C(NC[C@H](O)CN1CCc2ccccc2C1)c1cn2cc(C(F)(F)F)ncc2n1` [Example 53, (S)—N-(3-(3,4-dihydroisoquinolin-2(1H)-yl)-2-hydroxypropyl)-6-(trifluoromethyl)imidazo[1,2-a]pyrazine-2-carboxamide], for which the IC50 on PRMT5/MEP50 is 0.01 to 1 µM. Besides, in the assay on Z-138 cells, the 50% growth inhibitory concentration (GI50) fell in the range of 1 to 5 µM.
On PRMT5/MEP50, `Cc1c(C(=O)NC[C@H](O)CN2CCc3ccccc3C2)nc2ccc(C(F)(F)F)nn12` [Example 54, (S)—N-(3-(3,4-dihydroisoquinolin-2(1H)-yl)-2-hydroxypropyl)-3-methyl-6-(trifluoromethyl)imidazo[1,2-b]pyridazine-2-carboxamide] came in with an IC50 of 1 to 5 µM. Further, the concentration for 50% growth inhibition (GI50) in the assay with Z-138 cells is 1 to 5 µM.
`Cc1cn2c(C)c(C(=O)NC[C@H](O)CN3CCc4ccccc4C3)nc2cn1` [Example 55, (S)—N-(3-(3,4-dihydroisoquinolin-2(1H)-yl)-2-hydroxypropyl)-3,6-dimethylimidazo[1,2-a]pyrazine-2-carboxamide]: on PRMT5/MEP50, the IC50 is 1 to 5 µM. In addition, the concentration for 50% growth inhibition (GI50) in the assay with Z-138 cells was in the range of 1 to 5 µM.
Molecule `Cc1ccc2nc(C(=O)NC[C@H](O)CN3CCc4ccccc4C3)cn2n1` [Example 56, (S)—N-(3-(3,4-dihydroisoquinolin-2(1H)-yl)-2-hydroxypropyl)-6-methylimidazo[1,2-b]pyridazine-2-carboxamide] registered a 50% inhibitory concentration (IC50) against PRMT5/MEP50 of 1 to 5 µM. Besides, in the assay with Z-138 cells, the GI50 was above 5 µM.
The corresponding values for `Cc1cn2cc(C(=O)NC[C@H](O)CN3CCc4ccccc4C3)nc2cn1` [Example 57] are 1 to 5 µM and 1 to 5 µM.
The corresponding values for `O=C(NC[C@H](O)CN1CCc2ccccc2C1)c1cn2cc(N3CC(F)(F)C3)ncc2n1` [Example 58, (S)-6-(3,3-difluoroazetidin-1-yl)-N-(3-(3,4-dihydroisoquinolin-2(1H)-yl)-2-hydroxypropyl)imidazo[1,2-a]pyrazine-2-carboxamide] are 1 to 5 µM and 1 to 5 µM.
For `O=C(NC[C@H](O)CN1CCc2ccccc2C1)c1cn2cc(N3CC(F)(F)C3)ccc2n1` [Example 59, (S)-6-(3,3-difluoroazetidin-1-yl)-N-(3-(3,4-dihydroisoquinolin-2(1H)-yl)-2-hydroxypropyl)imidazo[1,2-a]pyridine-2-carboxamide] the same measures were 1 to 5 µM and 1 to 5 µM.
Take `O=C(NC[C@H](O)CN1CCc2ccccc2C1)c1cc2nc(C(F)(F)F)ccn2n1` [Example 60, (S)—N-(3-(3,4-dihydroisoquinolin-2(1H)-yl)-2-hydroxypropyl)-5-(trifluoromethyl)pyrazolo[1,5-a]pyrimidine-2-carboxamide]: at PRMT5/MEP50, the half-inhibitory concentration (IC50) fell in the range of 1 to 5 µM. In the assay on Z-138 cells, the GI50 fell in the range of 1 to 5 µM.
`O=C(NC[C@H](O)CN1CCc2ccccc2C1)c1cn2cc(C3(O)COC3)ccc2n1` [Example 61, (S)—N-(3-(3,4-dihydroisoquinolin-2(1H)-yl)-2-hydroxypropyl)-6-(3-hydroxyoxetan-3-yl)imidazo[1,2-a]pyridine-2-carboxamide] came in with an IC50 at PRMT5/MEP50 of 1 to 5 µM. The 50% growth inhibitory concentration (GI50) in the assay on Z-138 cells was 1 to 5 µM.
The molecule `Cn1cc(-c2ccn3nc(C(=O)NC[C@H](O)CN4CCc5ccccc5C4)cc3n2)cn1` [Example 62, (S)—N-(3-(3,4-dihydroisoquinolin-2(1H)-yl)-2-hydroxypropyl)-5-(1-methyl-1H-pyrazol-4-yl)pyrazolo[1,5-a]pyrimidine-2-carboxamide] came in with an IC50 against PRMT5/MEP50 of 1 to 5 µM. The concentration for 50% growth inhibition (GI50) with Z-138 cells lay in the range of 1 to 5 µM.
With `Cn1ccc(-c2ccn3nc(C(=O)NC[C@H](O)CN4CCc5ccccc5C4)cc3n2)cc1=O` [Example 63, (S)—N-(3-(3,4-dihydroisoquinolin-2(1H)-yl)-2-hydroxypropyl)-5-(1-methyl-2-oxo-1,2-dihydropyridin-4-yl)pyrazolo[1,5-a]pyrimidine-2-carboxamide], the concentration for half-maximal inhibition (IC50) against PRMT5/MEP50 lay in the range of 0.01 to 1 µM. For the same molecule, in the assay with Z-138 cells, the 50% growth inhibitory concentration (GI50) fell in the range of 1 to 5 µM.
The corresponding values for `Cc1c(C(=O)NC[C@H](O)CN2CCc3ccccc3C2)nc2cnc(-c3cnn(C)c3)cn12` [Example 64, (S)—N-(3-(3,4-dihydroisoquinolin-2(1H)-yl)-2-hydroxypropyl)-3-methyl-6-(1-methyl-1H-pyrazol-4-yl)imidazo[1,2-a]pyrazine-2-carboxamide] are 0.01 to 1 µM and 0.01 to 1 µM.
The corresponding values for `Cc1c(C(=O)NC[C@H](O)CN2CCc3ccccc3C2)nc2cnc(-c3ccn(C)c(=O)c3)cn12` [Example 65, (S)—N-(3-(3,4-dihydroisoquinolin-2(1H)-yl)-2-hydroxypropyl)-3-methyl-6-(1-methyl-2-oxo-1,2-dihydropyridin-4-yl)imidazo[1,2-a]pyrazine-2-carboxamide] are 0.01 to 1 µM and 0.01 to 1 µM.
The corresponding values for `Cc1c(C(=O)NC[C@H](O)CN2CCc3ccccc3C2)nc2cnc(-c3ccc(=O)n(C)c3)cn12` [Example 66, (S)—N-(3-(3,4-dihydroisoquinolin-2(1H)-yl)-2-hydroxypropyl)-3-methyl-6-(1-methyl-6-oxo-1,6-dihydropyridin-3-yl)imidazo[1,2-a]pyrazine-2-carboxamide] are 0.01 to 1 µM and 0.01 to 1 µM.
For the molecule `Cc1ccn2nc(C(=O)NC[C@H](O)CN3CCc4ccccc4C3)c(F)c2n1` [Example 67], at PRMT5/MEP50, the IC50 lay in the range of 1 to 5 µM. Also, the concentration for 50% growth inhibition (GI50) in the assay on Z-138 cells is above 5 µM.
For `O=C(NC[C@H](O)CN1CCc2ccccc2C1)c1nn2ccc(C(F)(F)F)nc2c1F` [Example 68, (S)—N-(3-(3,4-dihydroisoquinolin-2(1H)-yl)-2-hydroxypropyl)-3-fluoro-5-(trifluoromethyl)pyrazolo[1,5-a]pyrimidine-2-carboxamide] the same measures were above 5 µM and above 5 µM.
For `O=C(NC[C@H](O)CN1CCc2ccccc2C1)c1cn2cc(N3CCC(F)C3)ccc2n1` (stereo partly drawn) [Example 70, N—((S)-3-(3,4-dihydroisoquinolin-2(1H)-yl)-2-hydroxypropyl)-6-(3-fluoropyrrolidin-1-yl)imidazo[1,2-a]pyridine-2-carboxamide] the same measures were 0.01 to 1 µM and 1 to 5 µM.
At PRMT5/MEP50, `CN1CCN(c2ccc3nc(C(=O)NC[C@H](O)CN4CCc5ccccc5C4)cn3c2)CC1` [Example 71, (S)—N-(3-(3,4-dihydroisoquinolin-2(1H)-yl)-2-hydroxypropyl)-6-(4-methylpiperazin-1-yl)imidazo[1,2-a]pyridine-2-carboxamide] gave an IC50 of 0.01 to 1 µM. For the same molecule, the GI50 with Z-138 cells lay within 1 to 5 µM.
The corresponding values for `O=C(NC[C@H](O)CN1CCc2ccccc2C1)c1cn2cc(N3CCOCC3)ccc2n1` [Example 72, (S)—N-(3-(3,4-dihydroisoquinolin-2(1H)-yl)-2-hydroxypropyl)-6-morpholinoimidazo[1,2-a]pyridine-2-carboxamide] are 0.01 to 1 µM and 1 to 5 µM.
`N#Cc1ccc(-c2cn3cc(C(=O)NC[C@H](O)CN4CCc5ccccc5C4)nc3cn2)cc1` [Example 74, (S)-6-(4-cyanophenyl)-N-(3-(3,4-dihydroisoquinolin-2(1H)-yl)-2-hydroxypropyl)imidazo[1,2-a]pyrazine-2-carboxamide] registered a half-maximal inhibitory concentration (IC50) against PRMT5/MEP50 of 0.01 to 1 µM. In addition, the concentration for 50% growth inhibition (GI50) with Z-138 cells lay within 0.01 to 1 µM.
